In patent US7629318B2, “Immunosuppressant compounds, methods and uses related thereto” (priority 2002, dated 2009):
Values joined by “and” are separate entries in the source; they are usually repeats but may differ in a detail not shown here. Equal values may be shown once. Numbered stars: 1 amine (or outer) side, 2 acyl side, 3 side chain; on linkers, the order of the positions; unused ones are H or OH. Square brackets hold non-standard residues; d marks the D form. Peptide text beside a SMILES is read from it. X1 = CC(C)c1oc([C@H](CO)N[*:1])nc1C(=O)[*:2]; Pro(3R-Ph) = O=C(O)[C@H]1NCC[C@@H]1c1ccccc1; Tic = O=C(O)[C@@H]1Cc2ccccc2CN1; Cha = N[C@@H](CC1CCCCC1)C(=O)O

Experiments:
[1] = system: T cell activation from 0404(DR14) chimeric MHCII-mice; assay: In vivo inhibition of T cell activation by co-immunisation, DR14 mice immunised with OVA; set-up: species or system mouse; % Reduction of response to PPD(OVA): concentration or dose not given beside the values
Description: (§1) Mouse strains DR4 and DR14 carry chimeric MHC-II transgenes that encode the N-terminal domains of the respective DR molecules (forming the peptide binding site) and the remaining (2nd extracellular domains, transmembrane and intracytoplasmic domains) of the murine class II molecule I Ed. These strains are deficient of other murine class II, and thus, all helper T cell responses are triggered by peptides presented in the respective human MHC-II binding site. As an initial in vivo test of subject inhibitors designed to bind to DR, DR-transgenic mice were co-immunized with a pre-defined dose of protein antigen and different amounts of the compound antagonist to be tested. In this set-up, both antigen and compound were emulsified together in complete Freund's adjuvant (CFA), and thus, a direct competition between the two components for presentation by DR was tested. Readout of the assay is ex vivo antigen-specific activation of T cells from regional lymph nodes explanted 9 days after co-immunization. In a typical experiment, antigen dose-response was investigated, and the curves from mice immunized with antigen were compared to those from mice co-immunized with antigen+compound. The dose response curves were generated using lymph node cells pooled at equal numbers from 2-3 mice per experimental group. The experimental system also permits assessment of inherent antigenicity of the compound antagonist. This was done by setting up a dose-response study from the same cell pool using different concentrations of the compund under investigation instead of the antigen. As a specificity control, the response to Purified Protein Derivative (PPD), the major protein component of CFA, was tested in the same cell pool.
(§2) All Gpg conataining compounds have significant immunosupressive properties in one or both of the in-vivo models. Gpg-containing compounds also show improved activity or improved specificity over the Arg-containing equivilent. Further, compounds according to Formula I show activity in this assay.
(§3) Compounds of the invention were injected as an Emulsion prepared using CFA (Bacto Adjuvant Complete H37 Ra, Difco, Order-No. 3113-60); proteins 10 mg/ml in PBS, inhibitors 5 μM in 10% DMSO. CFA, PBS, antigen, and inhibitor were placed in the barrel of a 5-ml syringe (total volume not more than 1 mL). The mixture was sonicated at an amplitude less than 40% (30-35%) for two separated 15 s periods. The emulsion should seem to be hard and not liquid at this point. A drop of emulsion placed on the surface of water should not melt. The resulting emulsion was pushed through the needle into a 1 ml syringe with a needle (Gr.18, 26G×1″), and air bubbles were removed. Mice were co-immunized with 50 μg protein and 210 nM compound antagonist in final 100 μl emulsion into the tail base. Antigen+Compound and CFA are mixed 1:1 vol/vol. The best results are obtained using DR 4 mice immunised with HEL and DR 14 mice immunized with OVA.
(§4) Mice were injected at the tail-base as follows: Holding the tail of a mouse with thumb and middle finger, the index finger was placed under the base of the mouse's tail. The needle of the syringe was inserted about 1.5 cm from the tail base (hairy end) under the skin and pushed about 1 cm into the tail. 100 μl emulsion was injected into the mouse. After 9 days, mice were killed and lymph nodes removed.
(§5) The inhibitory effect of the candidate compounds on T-cell activation was tested using T-cells and antigen-presenting cells isolated from the lymph nodes of chimeric DR4-IE transgenic mice (Taconic, USA) previously co-immunized with hen egg lysozyme plus compound, or DR14-IE transgenic mice co-immunized with ovalbumin plus compound according to standard procedures (Adorini et al., 1988, Mueller et al., 1990; Current Protocols in Immunology, Vol. 2, 7.21; Ito et al., 1996). […]

[2] = system: T cell activation from 0401(DR4) chimeric MHCII-mice; assay: In vivo inhibition of T cell activation by co-immunisation, DR4 mice immunised with HEL; set-up: species or system mouse; % Reduction of response to PPD(HEL): concentration or dose not given beside the values
Description: as §1, §2, §3, §4, §5

[3] = target: DR4Dw4 (DRA1*0101 DRB1*0401) (Homo sapiens, UniProt P01903+P01911, A100K/A169T/F76Y/I96L/K127E/L162R/M171V/N62H/P40V/Q125Y/R42H/S133A/S149N/S66Y/V115G/V209L/W38E); assay: Competitive binding to MHC-II protein DR4Dw4
Procedure, shortened: (§6)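 Each MHC-II allele incubated with compound 16 hours at room temperature in duplicate; controls lacked compound, or both compound and MHC-II. Complexes captured 2 h at 4 °C, bound biotinylated peptide detected via europium-streptavidin and DELFIA enhancement, time-resolved fluorescence read at ex 340/em 613 (615) nm.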

Cathepsin L = Cathepsin L (Homo sapiens, UniProt P07711)
[4] = target: Cathepsin B1 (EC 3.4.22.1 from bovine spleen) (Bos taurus, UniProt P07688); details: Cathepsin B, 4 h
[5] = target: DR4Dw14 (DRA1*0101 DRB1*0404) (Homo sapiens, UniProt P01903+P01911, A100R/A169T/F76Y/I96L/K127E/L162R/M171V/N62H/P40V/Q125Y/R42H/S133A/S149N/S66Y/V209L/W38E); assay: Competitive binding to MHC-II protein DR4Dw14; details: 0404; read-out: Protein binding IC50 (nM) 0404
Procedure, shortened: as §6

[6] = target: T1, Priess (DR4Dw4: DRA1*0101 DRB1*0401) cells (Homo sapiens, UniProt P01903+P01911, A100K/A169T/F76Y/I96L/K127E/L162R/M171V/N62H/P40V/Q125Y/R42H/S133A/S149N/S66Y/V115G/V209L/W38E); assay: Competitive binding to MHC II proteins expressed on Priess cells; assay type: cell-based
T1 construct: MHC II Proteins Expressed on PRIESS and LG2 Cells; endogenous in cells; host or cells: Priess cells
Procedure: (§7) For use in the binding assay the cells were re-suspended in medium containing 1% FCS at a density of 2.5×10^6 cells/ml.
(§8) The assay was performed in sterile 96 well polystyrene microtiter plates. A 10 fold dilution series of compounds (16 nM-1615 μM) in 1% FCS was prepared from 5 or 10 mM compound stock solutions in 10% DMSO/water. 50 μl of each compound dilution were added in duplicates to 50 μl of a 16 μM solution of indicator peptide in 1% FCS. Cell binding was initiated by adding 100 μl of 2.5×10^6 cells/ml 1% FCS to each well. Controls were included containing the DMSO concentration present in the solution with the highest compound concentration. The cells were incubated at 37° C., 6% CO2. After 4 hours the cells were washed with 200 μl PBS and lysed in 200 μl lysis buffer (50 mM sodium phosphate, 150 mM sodium chloride, 1% (w/v) NP-40, 25 mM iodoacetamide, 1 mM PMSF, 3.1% protease inhibitor cocktail: 0.32 g/l of Chymostatin, Antipain, Pepstatin A, Soybean trypsin inhibitor and Leupeptin each, pH 7.5) for 10 min.
(§9) After washing with PBS, 190 μl of cell lysate were transferred to the appropriate wells of the capture plate and incubated for 2 h at 4° C. The wells were washed six times with 200 μl/well cooled (4 to 8° C.) of 1×DELFIA wash (Wallac-ADL-GmbH, Freiburg), incubated with 100 μl of cooled Europium-streptavidin conjugate (Wallac-ADL-GmbH, Freiburg; diluted 1/1000 with DELFIA assay buffer) for 30 minutes at 4° C., again washed six times with cooled 1×DELFIA wash and, finally, incubated with 200 μl cooled DELFIA enhancement solution (Wallac-ADL-GmbH, Freiburg) for one hour at room temperature before reading the time-resolved europium fluorescence at λex Eu^3+: 340 nm and λem Eu^3+: 613 (615) nm (Wallac Victor^2 1420 Multilabel Counter, Wallac-ADL-GmbH, Freiburg).

[7] = target: DR1 (DRA1*0101 DRB1*0101) (Homo sapiens, UniProt P01903+P01911, A100R/D57E/F55L/F60I/F76Y/I96L/L162R/M171V/P40L/Q125E/R42F/V115G/Y59C); assay: Competitive binding to MHC-II protein DR1; details: Protein binding IC50 (nM) 0101, 0101
Procedure, shortened: as §6

[8] = system: T-cell proliferation, DR14-LN; details: read-out: Immunsupressive assays DR14-LN (IC50)
[9] = target: T2, LG2 (DR1: DRA1*0101 DRB1*0101) cells (Homo sapiens, UniProt P01903+P01911, A100R/D57E/F55L/F60I/F76Y/I96L/L162R/M171V/P40L/Q125E/R42F/V115G/Y59C); assay: Competitive binding to MHC II proteins expressed on LG2 cells; assay type: cell-based; details: Cell binding IC50 (uM) LG2 (0101), LG2 (0101)
T2 construct: MHC II Proteins Expressed on PRIESS and LG2 Cells; endogenous in cells; host or cells: LG2 cells
Procedure: as §7, §8, §9

[10] = system: T-cell proliferation, lymph node cells of chimeric 0401-IE transgenic mice; details: read-out: Immunsupressive assays DR4-LN (IC50); DR4-LN
Procedure: The compounds were tested as follows to inhibit the proliferative T cell response of antigen-primed lymph node cells from mice carrying a chimeric mouse-human class II transgene with an RA-associated peptide binding site, and lack murine class II molecules (Muller et al., 1990; Woods et al., 1994; Current Protocols in Immunology, Vol. 2, 7.21; Ito et al., 1996). Here, the immunization takes place in vivo, but the inhibition and readout are ex vivo. […] These mice lack murine MHC class II, and thus, all Th responses are channelled through a single human RA-associated MHC class II molecule (Ito et al. 1996). These transgenic mice represent a model for testing human class II antagonists.
1.5×10^5 cells are incubated in 0.2 ml wells of 96-well tissue culture plates in the presence of ovalbumin (30 μg per well—half-maximal stimulatory concentration) and a dilution series of the compound under test (from around 0.1 to 200 uM) in serum free HL-1 medium containing 2 mM L-glutamine and 0.1 g/l Kanamycin for three days. Antigen specific proliferation is measured by 3H-methyl-thymidine (1 μCi/well) incorporation during the last 16 h of culture (Falcioni et al., 1999). Cells are harvested, and 3H incorporation measured using a scintillation counter (TopCount, Wallac Finland).

Row | Compound | % Reduction of response to OVA ([1]; DR14 mice co-immunised with OVA plus compound, mean % inhibition from the control over 3 concentrations of antigen (6.7, 20 and 60 ug)) | % Reduction of response to PPD(OVA) ([1]; specificity control: response to PPD in the same cell pool, OVA co-immunised mice) | % Reduction of response to HEL ([2]; DR4 mice co-immunised with HEL plus compound, mean % inhibition from the control over 3 concentrations of antigen (6.7, 20 and 60 ug)) | % Reduction of response to PPD(HEL) ([2]; specificity control: response to PPD in the same cell pool, HEL co-immunised mice) | IC50 [3] | Stability (Arbitrary units) Cath L 4 h (Cathepsin L) | Stability (Arbitrary units) Cath B 4 h [4] | IC50 [5] | IC50 [6] | IC50 [7] | IC50 [8] | IC50 [9] | IC50 [10]
1 | Ac-Cha-Gpg-Disc-Nle-βPhPro-[S(oxaz)L]-NMe2 [Compound P61-1] | 3.7% | 29.9% | 37.9% | 32.3% |  |  |  |  |  |  |  |  | 
2 | CSCC[C@H](NC(=O)[C@@H]1Cc2ccccc2CN1C(=O)[C@H](CCCNC(=N)N)NC(=O)[C@H](CC1CCCCC1)NC(C)=O)C(=O)N1CC[C@H](c2ccccc2)[C@H]1C(=O)N[C@@H](CO)c1nc(C(=O)N(C)C)c(C(C)C)o1 [Compound P33, Ac-Cha-Arg-Tic-Met-βPhPro-[S(oxaz)L]-NMe2] (Ac-[Cha]R[Tic]M[Pro(3R-Ph)][X1]-NMe2) |  |  |  |  | 0.3 µM | 107 Arbitrary units | 97 Arbitrary units and 98 Arbitrary units | 220 nM | 3.2 µM | 190 nM | 32 µM | 4.6 µM | 40 µM
